The values that follow come from patent publication US7119073B2, “Peptides and their use as inhibitors of hepatitis C virus ns3 protease” (Istituto Di Ricerche Di Biologia Molecolare P. Angeletti SpA, priority 2001, dated 2006).

Like-named read-outs stand apart in the source and are kept apart here. Where a SMILES comes first, the peptide text is derived from it. [ ]: non-standard residue; d: D form. The star is where a group is joined. Dip = N[C@H](C(=O)O)C(c1ccccc1)c1ccccc1; Abu(4,4-F2) = N[C@@H](CC(F)F)C(=O)O; Cha = N[C@@H](CC1CCCCC1)C(=O)O; X1 = O=C(O)c1ccc(CCN*)cc1 A value given as a limit tells only on which side of the number the result lay.

The target of assay [1] is T1, NS3 protease domain complexed to a modified form of the NS4A peptide (Pep4AK) (Hepatitis C virus genotype 1b, UniProt P26663).
T1 construct: NS3 protease domain (residues 1027–1206 of the HCV polyprotein)
T1 sequence (P26663 1027-1206, other chains not shown): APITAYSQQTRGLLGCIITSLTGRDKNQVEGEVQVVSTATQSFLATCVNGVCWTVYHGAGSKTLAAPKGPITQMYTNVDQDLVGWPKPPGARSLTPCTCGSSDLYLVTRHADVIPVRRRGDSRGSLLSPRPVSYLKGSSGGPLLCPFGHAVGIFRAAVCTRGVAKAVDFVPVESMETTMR
Kind of assay: HCV NS3 protease domain/NS4A cofactor peptide assay (Assay B). Type of assay: biochemical.

For assay [2], the target named is T2, full length NS3 protein noncovalently complexed with the full-length NS4A cofactor protein (NS3/NS4A complex) (Hepatitis C virus genotype 1b, UniProt P26663).
T2 construct: full length NS3 protein spanning residues 1027–1657 of the HCV polyprotein
T2 sequence (P26663 1027-1657): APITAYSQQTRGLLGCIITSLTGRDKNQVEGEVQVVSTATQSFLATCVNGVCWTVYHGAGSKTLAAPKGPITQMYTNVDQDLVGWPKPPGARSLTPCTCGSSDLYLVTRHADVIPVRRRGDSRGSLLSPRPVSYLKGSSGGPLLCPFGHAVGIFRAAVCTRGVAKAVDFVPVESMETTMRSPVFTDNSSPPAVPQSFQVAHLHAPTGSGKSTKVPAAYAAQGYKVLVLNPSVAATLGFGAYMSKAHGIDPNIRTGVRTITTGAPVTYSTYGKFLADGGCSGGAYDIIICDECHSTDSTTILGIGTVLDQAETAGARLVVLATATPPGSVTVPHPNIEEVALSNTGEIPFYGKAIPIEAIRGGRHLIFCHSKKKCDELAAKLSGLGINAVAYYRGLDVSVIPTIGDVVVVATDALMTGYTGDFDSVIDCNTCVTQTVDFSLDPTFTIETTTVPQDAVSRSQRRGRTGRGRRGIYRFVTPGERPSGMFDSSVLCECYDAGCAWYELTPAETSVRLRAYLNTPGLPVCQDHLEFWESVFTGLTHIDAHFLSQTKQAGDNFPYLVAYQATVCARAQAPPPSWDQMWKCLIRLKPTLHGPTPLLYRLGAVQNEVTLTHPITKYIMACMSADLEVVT
T2 sequence (P26663 1658-1711): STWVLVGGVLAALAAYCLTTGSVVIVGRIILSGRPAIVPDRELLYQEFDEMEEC
Kind of assay: Full-length NS3-NS4A heterodimer protein assay (Assay A). Type of assay: biochemical, hepatitis C virus (HCV). As to the method:
Full-Length NS3-NS4A Heterodimer Protein Assay (Assay A)
(Gallinari, P., Paolini, C., Brennan, D., Nardi, C., Steinkühler, C. and De Francesco, R. Modulation of hepatitis C virus NS3 protease and helicase activities through the interaction with NS4A. Biochemistry 38, 5620–5632, 1999)
In this assay the full length NS3 protein spanning residues 1027–1657 of the HCV polyprotein, noncovalently complexed with the full-length NS4A cofactor protein (residues 1658–1711) was used. Assays were performed in 60 μl of a buffer containing 50 mM Hepes pH 7.5, 0.15 M NaCl, 0.1% (v/v) Triton X-100, 15% (v/v) glycerol, 10 mM DTT, 2 nM NS3/NS4A complex. To this assay mix 10 μM (final concentration) of a peptide substrate corresponding to the NS5AB cleavage site and having the sequence of the NS5A-NS5B peptide, were added. Incubation times at 23° C. were adjusted to obtain <10% conversion. Reactions were stopped by the addition of 40 μl of 1% TFA. Cleavage was determined by HPLC using a Merck-Hitachi chromatograph equipped with an autosampler. 80 μl samples were injected on a Lichrospher C18 reversed phase cartridge column (4×74 mm, 5 μm, Merck) and fragments were separated using a 10–40% acetonitrile gradient at 5%/min using a flow rate of 2.5 ml/min. Peak detection was done by monitoring both the absorbance at 220 nm and tryptophan fluorescence (λex=280 nm, λem=350 nm). Cleavage products were quantitated by integration of chromatograms with respect to appropriate standards. Kinetic parameters were calculated from nonlinear least-squares fit of initial rates as a function of substrate concentration with the help of a Kaleidagraph software, assuming Michaelis-Menten kinetics.
Ki values of peptide inhibitors were calculated from substrate titration experiments performed in the presence of increasing amounts of inhibitor. Experimental data sets were simultaneously fitted to eg.1 using a multicurve fit macro with the help of a Sigmaplot software: V=(VmaxS)/(Km([…])+S); (eq.1) Alternatively, Ki values were derived from IC50 values, calculated using a four-parameter logistic function, according to eq.2: IC50=(1+S/Km)Ki (eq.2)

Setting [3] is: NS3 protease domain/NS4A cofactor peptide assay, read-out: Assay B (IC50 class).
The mark [4] stands for this setting: Table 1, NS3 protease domain/Pep4AK, 4AB peptide substrate, read-out: Assay B.
Setting [5] is: Table 5, full-length NS3/NS4A, read-out: AssayA.

For `CC(C)C[C@H](NC(=O)C1(Cc2ccsc2C(=O)O)Cc2ccccc2N1)C(=O)N[C@@H](CC(F)F)C(=O)NCCc1c(F)cc(C(=O)O)cc1F` (single isomer, unassigned) [Compound 708b], the IC50 was less than 10 µM in assay [1] (setting [3]) and less than 100 µM in assay [2].

Consider `CC(C)CC(NC(=O)C(CCC(=O)O)NC(=O)OC(C)(C)C)C(=O)NC(CC(F)F)C(=O)NCCc1ccccc1Cl` (stereo not drawn) [Compound 115], for which the IC50 was less than 10 µM in assay [1] (setting [4]) and less than 100 µM in assay [2].

Turning to `CC(C)C[C@H](NC(=O)C1(Cc2ccsc2C(=O)O)Cc2ccccc2N1)C(=O)N[C@@H](CC(F)F)C(=O)NCCc1cccc(/C=C/C(=O)O)c1` (single isomer, unassigned) [Compound 706], the IC50 is less than 10 µM in assay [1] (setting [3]) and less than 100 µM in assay [2].

For the molecule `CC(C)COC(=O)N[C@@H](CCC(=O)O)C(=O)N[C@@H](CC(C)C)C(=O)N[C@@H](CS)C(=O)NCCc1ccc(C(=O)O)cc1Cl` [Compound 178], the IC50 was less than 1 µM in assay [1] (setting [4]) and less than 10 µM in assay [2].

Take `COc1ccc(Br)cc1CCNC(=O)C(CS)NC(=O)C(CC(C)C)NC(=O)C(CCC(=O)O)NC(=O)OCC(C)C` (stereo not drawn) [Compound 173]: the IC50 is less than 10 µM in assay [1] (setting [4]) and less than 100 µM in assay [2].

As to `COC(=O)c1ccc(CCNC(=O)[C@H](CS)NC(=O)[C@H](CC(C)C)NC(=O)[C@H](CCC(=O)O)NC(=O)OCC(C)C)c(Cl)c1` [Compound 177], the IC50 is less than 10 µM in assay [1] (setting [4]) and less than 100 µM in assay [2].

Consider `CC(=O)N[C@@H](CC(=O)O)C(=O)N[C@@H](CCC(=O)O)C(=O)N[C@H](C(=O)N[C@@H](CCC(=O)O)C(=O)N[C@@H](CC1CCCCC1)C(=O)N[C@@H](CC(F)F)C(=O)NCCc1ccc(C(=O)O)cc1)C(c1ccccc1)c1ccccc1` [Compound 321] (Ac-DE[Dip]E[Cha][Abu(4,4-F2)]-X1), for which the IC50 in assay [1] (Assay B, Table 3, NS3 protease domain/Pep4AK) was less than 1 µM; in assay [2] (Table 3, full-length NS3/NS4A, read-out: Assay A), less than 1 µM.

As for `CC(C)COC(=O)NC(CCC(=O)O)C(=O)NC(CC(C)C)C(=O)NC(CS)C(=O)NCCc1ccc(C(=O)O)cc1` (stereo not drawn) [Compound 151], the IC50 in assay [1] (setting [4]) is less than 10 µM; in assay [2] it was less than 100 µM.

Turning to `CC(C)COC(=O)NC(CCC(=O)O)C(=O)NC(CC(C)C)C(=O)NC(CS)C(=O)NCCc1cccc(C(=O)O)c1` (stereo not drawn) [Compound 133], the IC50 in assay [1] (setting [4]) was less than 10 µM; in assay [2], less than 100 µM.

On to `CC(C)CC(NC(=O)C(CCC(=O)O)NC(=O)OC(C)(C)C)C(=O)NC(CS)C(=O)NCCc1ccccc1Cl` (stereo not drawn) [Compound 114], for which the IC50 was less than 10 µM in assay [1] (setting [4]) and less than 100 µM in assay [2].

Regarding `CC(C)C[C@H](NC(=O)C1(Cc2ccsc2C(=O)O)Cc2ccccc2N1)C(=O)N[C@@H](CC(F)F)C(=O)NCCc1ccc(C(=O)O)cc1Cl` (single isomer, unassigned) [Compound 705], the IC50 in assay [1] (setting [3]) is less than 10 µM; in assay [2], less than 100 µM.

With `CC(C)C[C@H](NC(=O)C1(Cc2ccc(C(=O)O)s2)CCc2ccccc2N1)C(=O)N[C@@H](CC(F)F)C(=O)NCCc1ccc(C(=O)O)cc1Cl` (single isomer, unassigned) [Compound 711b], the IC50 in assay [1] (setting [3]) is less than 10 µM; in assay [2], less than 100 µM.

On to `CC(C)C[C@H](NC(=O)[C@H](CCC(=O)O)NS(=O)(=O)c1cccc2ccccc12)C(=O)N[C@@H](CS)C(=O)NCCc1ccccc1Cl` [Compound 252], for which the IC50 is less than 10 µM in assay [1] (Assay B, Table 2, NS3 protease domain/Pep4AK) and less than 10 µM in assay [2].

As for `CC(C)COC(=O)NC(CCC(=O)O)C(=O)NC(CC(C)C)C(=O)NC(CC(F)F)C(=O)NCCc1ccc(C(=O)O)cc1Cl` (stereo not drawn) [Compound 180], the IC50 in assay [1] (Assay B, Table 1, NS3 protease domain/Pep4AK, 4AB peptide substrate) was less than 1 µM; in assay [2] (Table 1, full-length NS3/NS4A, NS5A-NS5B peptide substrate, read-out: Assay A), less than 10 µM.

As to `CC(C)COC(=O)NC(CCC(=O)O)C(=O)NC(CC(C)C)C(=O)NC(CS)C(=O)NCCc1ccc(CCC(=O)O)cc1` (stereo not drawn) [Compound 156], the IC50 in assay [1] (setting [4]) is less than 10 µM; in assay [2] it was less than 100 µM.

On to `CC(C)COC(=O)NC(CCC(=O)O)C(=O)NC(CC(C)C)C(=O)NC(CS)C(=O)NCCc1c(Cl)cccc1Cl` (stereo not drawn) [Compound 164], for which the IC50 in assay [1] (setting [4]) is less than 10 µM; in assay [2], less than 100 µM.

As to `CC(C)COC(=O)N[C@H](C(=O)N1C[C@H](c2ccccc2)C[C@H]1C(=O)N[C@@H](CC(F)F)C(=O)NCCc1c[nH]c2ccccc12)C(C)C` [Compound 574], the IC50 in assay [2] (setting [5]) was less than 100 µM.

Consider `CC(Oc1ccc(F)c(CCNC(=O)[C@H](CC(F)F)NC(=O)[C@@H]2C[C@@H](C3CCCCC3)CN2C(=O)[C@@H](NC(=O)OCC(C)(C)C)C(C)C)c1F)C(=O)O` (mixture of isomers) [Compound 567], for which the IC50 in assay [2] (setting [5]) is less than 1 µM.

In the case of `CCCS(=O)(=O)[C@@H]1C[C@@H](C(=O)N[C@@H](CC(F)F)C(=O)NCCc2c(F)cc(C(=O)O)cc2F)N(C(=O)[C@@H](NC(=O)OCC(C)C)C(C)C)C1` [Compound 550], the IC50 in assay [2] (setting [5]) is less than 1 µM.

As for `CCOC(=O)/C=C/c1cccc(CCNC(=O)[C@H](CC(F)F)NC(=O)[C@@H]2C[C@@H](c3ccccc3)CN2C(=O)[C@@H](NC(=O)OCC(C)C)C(C)C)c1` [Compound 559], the IC50 in assay [2] (setting [5]) was less than 100 µM.

Regarding `CC(C)COC(=O)N[C@H](C(=O)N1C[C@H](OCc2ccccc2)C[C@H]1C(=O)N[C@@H](CC(F)(F)F)C(=O)NCCc1c(F)cc(C(=O)O)cc1F)C(C)C` [Compound 530], the IC50 in assay [2] (setting [5]) is less than 10 µM.

As to `CC(C)COC(=O)N[C@H](C(=O)N1C[C@H](C2CCCCC2)C[C@H]1C(=O)N[C@@H](CC(F)(F)F)C(=O)NCCc1c(F)cc(C(=O)O)cc1F)C(C)C` [Compound 529], the IC50 in assay [2] (setting [5]) is less than 10 µM.

For `CC(C)C[C@H](NC(=O)C1(Cc2cccc(C(=O)O)c2)CCc2ccccc2N1)C(=O)N[C@@H](CC(F)F)C(=O)NCCc1ccc(C(=O)O)cc1Cl` (single isomer, unassigned) [Compound 712b], the IC50 in assay [1] (setting [3]) was less than 10 µM; in assay [2], less than 100 µM.

For the molecule `CC(C)COC(=O)N[C@H](C(=O)N1C[C@H](OCc2ccc(C(=O)O)cc2)C[C@H]1C(=O)N[C@@H](CC(F)F)C(=O)NCCc1c(Cl)cccc1Cl)C(C)C` [Compound 509], the IC50 in assay [2] (setting [5]) was less than 100 µM.

For the molecule `CC(C)COC(=O)N[C@H](C(=O)N1C[C@H](c2ccccc2)C[C@H]1C(=O)N[C@@H](CC(F)F)C(=O)NCCc1cccc(/C=C/C(=O)O)c1)C(C)C` [Compound 558], in assay [2] (setting [5]), the IC50 was less than 10 µM.

For the molecule `CC(C)COC(=O)N[C@H](C(=O)N1C[C@H](SCc2ccccc2)C[C@H]1C(=O)N[C@@H](CC(F)F)C(=O)NCCc1c(F)cc(C(=O)O)cc1F)C(C)C` [Compound 544], in assay [2] (setting [5]), the IC50 is less than 10 µM.

Take `CC(C)COC(=O)NC(CCC(=O)O)C(=O)NC(CC(C)C)C(=O)NC(CS)C(=O)NCCc1ccc(CC(=O)O)cc1` (stereo not drawn) [Compound 154]: the IC50 in assay [1] (setting [4]) was less than 10 µM; in assay [2], less than 100 µM.

For `CC(C)COC(=O)N[C@@H](CCC(=O)O)C(=O)N1C[C@H](c2ccccc2)C[C@H]1C(=O)N[C@@H](CS)C(=O)NCCc1ccc(C(=O)O)cc1Cl` [Compound 520], the IC50 in assay [2] (setting [5]) is less than 10 µM.

With `CC(C)COC(=O)N[C@H](C(=O)N1C[C@H](c2ccccc2)C[C@H]1C(=O)N[C@@H](CC(F)F)C(=O)NCCc1ccc(-c2noc(=O)[nH]2)cc1)C(C)C` [Compound 519], the IC50 in assay [2] (setting [5]) is less than 100 µM.

Consider `CC[C@H](C)[C@H](NC(=O)OCC(C)C)C(=O)N1C[C@H](C2CCCCC2)C[C@H]1C(=O)N[C@@H](CC(F)F)C(=O)NCCc1c(F)cc(C(=O)O)cc1F` [Compound 533], for which the IC50 in assay [2] (setting [5]) is less than 1 µM.

With `CC(C)COC(=O)N[C@H](C(=O)N1C[C@H](c2ccccc2)C[C@H]1C(=O)N[C@@H](CC(F)F)C(=O)NCCc1c(F)cc(C(=O)O)cc1F)C(C)(C)C` [Compound 537], the IC50 in assay [2] (setting [5]) is less than 10 µM.

For the molecule `CCC(Nc1cccc(CCNC(=O)[C@H](CC(F)F)NC(=O)[C@@H]2C[C@@H](c3ccccc3)CN2C(=O)[C@@H](NC(=O)OCC(C)C)C(C)C)c1)C(=O)O` (mixture of isomers) [Compound 563], the IC50 in assay [2] (setting [5]) was less than 10 µM.

As for `CC(C)COC(=O)N[C@H](C(=O)N1C[C@H](c2ccccc2)C[C@H]1C(=O)N[C@@H](CC(F)F)C(=O)NCCc1ccc(C(=O)O)cc1)C(C)C` [Compound 517], the IC50 in assay [2] (setting [5]) was less than 10 µM.
